From patent publication US8722343B2, “Methods and compositions for the diagnosis and treatment of diabetes” (priority 2008, dated 2014)

Key:
βTC3 cells [1] = assay: MTT cell viability assay in βTC3 cells; format: cell-based, mouse
Method: 1A: Glutamate induces a dose-dependent beta-cell death. 24 hrs after plating, αTC1 and βTC3 cells were incubated for five days with the indicated glutamate concentrations and viability was assessed by MTT assay. Data are presented as % Relative Growth Rate (RGR) versus controls (100%) and represent the mean±SE of at least 7 independent experiments (n=6). * p<0.01 vs ctrl; ° p<0.01 vs Glu 5 mM in αTC1.
1C: β-cell death is prevented by pharmacological inhibition of ionotropic channels. 24 hrs after plating, αTC1 and βTC3 cells were incubated for five days with 0.025 mM CNQX (left panel) or 0.1 mM APV (right panel), in the presence or the absence of 5 mM glutamate and viability was assessed by MTT assay. Data are presented as % RGR versus control samples (100%) and represent the mean±SE of three independent experiments (n=5). * p<0.05
6B. MTT assay. 24 hrs after plating, αTC1 and βTC3 cells were incubated for five days with different DHK concentrations and viability was assessed by MTT assay. Data are presented as % RGR versus control (100%) and represent the mean±SE of three independent experiments (n=8). * (DHK versus control) p<0.05
8B: MTT assay: 24 hrs after plating, βTC3 cells were incubated for five days with the indicated ceftriaxone concentrations in the presence or absence of 5 mM glutamate and viability was assayed by MTT assay. Data are presented as % RGR versus control (100%) and represent the mean±SE of three independent experiments (n=8). *(ceftriaxone versus relative control) p<0.05.
βTC3 and αTC1 cells were derived from progeny of transgenic mice expressing SV40 large T-antigen under control of the rat insulin II 5′-flanking region or rat preproglucagon 5′-flanking region, respectively (Powers et al, 1990) and were originally provided by Douglas Hanahan (Department of Biochemistry and Biophysics, University of California, San Francisco, Calif.). βTC3 were grown in RPMI 1640 11 mM glucose, supplemented with 10% heat inactivated fetal bovine serum, 2 mM L-glutamine, and 100 IU/ml streptomycin/penicillin, as previously described (Galbiati et al, 2002). Experiments were performed between the 27 and 33 passage of cell culture.
(§1) 3-(4,5-Dimethylthiazol-2-yl)-2,5-diphenyltetrazolium bromide (MTT) assay. βTC3 cells were seeded at a density of 8×10^3 cells/well onto 96-well culture plates. Cells were allowed to attach and grow for 24 h in standard medium. Then medium was replaced with fresh medium containing glutamate, DHK (Dihydrokainic Acid, Sigma Aldrich), glutamate receptor inhibitors APV and CNQX (Sigma Aldrich) or ceftriaxone (Sigma Aldrich) at the indicated concentrations. […] Coloured formazan product was determined spectrophotometrically at 540 nm. 20 islets/tube were used to assess viability in human isolated islets. Data are expressed as % Relative Growth Rate (% RGR) versus control samples.

αTC1 cells = assay: MTT cell viability assay in αTC1 cells; format: cell-based, mouse
Method: 1A: Glutamate induces a dose-dependent beta-cell death. […] Data are presented as % Relative Growth Rate (RGR) versus controls (100%) and represent the mean±SE of at least 7 independent experiments (n=6). * p<0.01 vs ctrl; ° p<0.01 vs Glu 5 mM in αTC1.
αTC1 were cultured in DMEM 25 mM glucose supplemented with 10% heat inactivated fetal bovine serum, 2 mM glutamine, and 100 IU/ml streptomycin/penicillin, as previously described (Galbiati et al, 2002). Experiments were performed between the 33 and 43 passage of cell culture. Cells were cultured under standard humidified conditions of 5% CO2 at 37° C.
as §1

human isolated islets [2] = format: cell-based; details: 16.7 mM glucose; DHK (0.3 mM) or L-glutamate (0.5 mM) alone
Method: FIG. 5: GLT1 CONTROLS HORMONE SECRETION IN HUMAN ISOLATED ISLETS. 48 hours after isolation, 20 human islets per tube were exposed to 3.3 or 16.7 mM glucose in the absence and the presence of either L-glutamate (0.5 mM), DHK (0.3 mM) or both L-glutamate and DHK, and insulin secretion measured. Levels of secreted insulin from islets were normalized to total insulin content. Data are expressed as % of insulin content and represent the mean±SD of two independent experiments performer in duplicate.
Insulin content and secretion were assessed on 20 islets, using a Micro-particle Enzyme Immunoassay (MEIA insulin, IMX System, Abbott Laboratories, Abbott Park, Ill., USA). Insulin secretion in response to increasing glucose concentrations, glutamate or DHK treatment was assessed by static incubation as previously described (Federici et al, 2000). Briefly, batches of 20 islets were pre-incubated in 1 ml of Krebs-Ringer buffer (KRB) supplemented with 3, 3 or 16.7 mM glucose for 30 min. Then the supernatants were replaced with Kreb's buffer containing 3, 3 or 16.7 mM glucose plus glutamate or the specific GLT1 inhibitor DHK (Sigma, St Louis, Mo., USA), as indicated. After a 30-min incubation at 37° C., the medium was removed and frozen for immunoassays. At the end of incubation, islets were lysed in lyses buffer and the total insulin content determined by immunoassay. […]

human isolated islets [3] = assay: MTT viability assay in isolated human islets; format: cell-based; details: 5 mM glutamate, three days, 16.7 mM glucose
Method: 7A: MTT assay: 48 hrs after isolation, 20 islets/tube were incubated for three days with the indicated glutamate and DHK concentrations in the presence of 3.3 mM glucose or 16.7 mM glucose and viability was assessed by MTT assay. Data are expressed as % Relative Growth Rate (% RGR) versus control samples and are the means±SE of three different experiments performed in triplicate.
Human pancreatic islets were isolated from the pancreases of cadaveric multiorgan donors by using the procedure already described by Ricordi (Ricordi, et al, 1988). The islets used in this study were isolated from eight different organs. After the isolation, the islets were purified from the contaminant exocrine tissue by centrifugation on Ficoll gradients, obtaining a final purity that ranged from 60% to 80%, as assayed by dithizone staining (Ricordi et al, 1988). Islets were then cultured in RPMI 1640 tissue culture medium. […]
3-(4,5-Dimethylthiazol-2-yl)-2,5-diphenyltetrazolium bromide (MTT) assay. βTC3 cells were seeded at a density of 8×10^3 cells/well onto 96-well culture plates. […] After five days incubation, cell viability was assessed using the MTT method, according to the manufacturer's protocols (Sigma Aldrich). Coloured formazan product was determined spectrophotometrically at 540 nm. […] Data are expressed as % Relative Growth Rate (% RGR) versus control samples.

βTC3 cells [4] = assay: TUNEL apoptosis assay in βTC3 cells; format: cell-based; details: 0.5 mM glutamate for 5 days
Method: 1B: Glutamate overstimulation causes increased β-cell apoptosis. 24 hours after plating, βTC3 cells were incubated for five days with 0.5 mM glutamate, and cell apoptosis was assessed by TUNEL assay. The cell nuclei were labelled with PrI. Histograms on the right represent TUNEL positive cells per field, and are the mean±SE of two independent experiments performed in duplicate.
6C TUNEL assay: 24 hours after plating, βTC3 cells were incubated for five days with 0.1 mM DHK, and cell apoptosis was assessed by TUNEL assay. Cell nuclei were labelled with PrI. Data are presented as TUNEL positive cells per field (histograms on the right), and are the mean±SE of two independent experiments performed in duplicate. * P<0.05
(§2) 6D ShRNA interference. βTC3 cells were transfected with two different shRNA directed against GLT1 (Sh1, Sh3) or a control shRNA (ShC), and three days after transfection, cells were assayed for 3[H]-D-aspartate uptake (b) or lysed and the presence of GLT assayed by western blotting (a) or fixed and processed for TUNEL (c).
Apoptosis of β-TC3 cells was estimated using the terminal deoxynucleotidyltransferase-mediated dUTP-biotin nick end-labelling assay (TUNEL). […] Tunel-positive cells were counted by two independent observers using a 40× objective from at least 40 randomly selected fields per coverslip. […]

GLT1 = GLT1 expression in βTC3 cells by western blotting; format: cell-based, mouse; details: 10 μM ceftriaxone, five days
Method: as §2
8A: GL1 expression. 150.000 cells were plated on […] diameter Petri dishes and 24 hours after plating, they were incubated with 10 μM ceftriaxone for five days. After incubation cells were lysed and 100 μg of whole lysate extracts were separated onto a 9% SDS-PAGE and the expression of glutamate transporter was detected using specific anti-GLT1 or anti-β-catenin antibodies. The expression of GLT1 was quantified by densitometry, and normalized over β-catenin content. Shown is a representative experiment; Similar results were obtained in two other independent experiments.
βTC3 or αTC1 cells were seeded onto 6-cm tissue culture plates and allowed to attach and grow until confluence. […] After 1 h at 4 C, lysates were centrifuged at 13,000 rpm for 10 min, and 50 μg of total extracted proteins were analyzed on 9% SDS-PAGE and transferred onto nitrocellulose (Shleicher and Shull, Dassel, Germany). […] The signal intensities were densitometrically quantified using Scion Image software. […]

[5] = acute exposure (15 min, 0.5 μM glutamate) or exposure for 2 days

N#Cc1cc2c(cc1[N+](=O)[O-])=NC(=O)C(=O)N=2 [CNQX, 6-Cyano-7-nitroquinoxaline-2,3-dione]
increase in RGR relative to 5 mM glutamate (βTC3 cells [1]; 0.025 mM CNQX with 5 mM glutamate, five days): 30%
prevention of vulnerability of β-cells to glutamate (βTC3 cells [1]; co-administration with 5 mM glutamate, five days, 0.025 mM CNQX or 0.1 mM APV): partially prevented

N[C@@H](CCC(=O)O)C(=O)O [glutamate]
glutamate toxicity (cell viability) (αTC1 cells; 0.05 to 5 mM glutamate, five days): detectable only at the highest glutamate concentration (5 mM)
effect on cell survival (αTC1 cells; [5]): did not find any effect
effect on insulin secretion (human isolated islets [2]): No effect
reduction in RGR (cell viability) (βTC3 cells [1]; 0.05 mM glutamate, five days): 11.53 ± 0.52%
reduction in RGR (cell viability) (βTC3 cells [1]; 5 mM glutamate, five days): 51.46 ± 2.61%
effect on cell survival (βTC3 cells [1]; [5]): did not find any effect
RGR decrease (cell viability) (human isolated islets [3]): 18%
number of TUNEL positive cells (βTC3 cells [4]): significant increase

CO/N=C(\C(=O)N[C@@H]1C(=O)N2C(C(=O)O)=C(CSc3nc(=O)c(=O)[nH]n3C)CS[C@H]12)c1csc(N)n1 [ceftriaxone]
GLT1/EAAT2 transporter expression (GLT1): increased transporter's expression
protection from glutamate toxicity (βTC3 cells [1]; five days with ceftriaxone, 5 mM glutamate): dose-dependent protection
